# Reference: ChEMBL document CHEMBL1671765, “Microbiologic and clinical implications of bacteremia due to extended-spectrum-beta-lactamase-producing Klebsiella pneumoniae with or without plasmid-mediated AmpC beta-lactamase DHA-1” (2010)
# What was measured:
# Format in all cases: functional
# [1] = system: Klebsiella pneumoniae; test: Antibacterial activity against ESBL-producing Klebsiella pneumoniae by Etest
# [2] = system: Klebsiella pneumoniae; test: Antibacterial activity against plasmid-mediated AmpC beta-Lactamase DHA-1 and ESBL-producing Klebsiella pneumoniae by Etest
# [3] = system: Klebsiella pneumoniae; test: Antibacterial activity against plasmid-mediated AmpC beta-Lactamase DHA-1 and ESBL-producing Klebsiella pneumoniae by Etest in presence of Tazobactam
# [4] = system: Klebsiella pneumoniae; test: Antibacterial activity against ESBL-producing Klebsiella pneumoniae by Etest in presence of Tazobactam
SMILES,MIC50 [3] [µg/mL],MIC90 [3] [µg/mL],MIC50 [4] [µg/mL],MIC90 [4] [µg/mL],MIC [1] [µg/mL],MIC [2] [µg/mL],MIC50 [1] [µg/mL],MIC90 [1] [µg/mL],MIC50 [2] [µg/mL],MIC90 [2] [µg/mL]
C[C@@H](O)[C@H]1C(=O)N2C(C(=O)O)=C(S[C@@H]3CN[C@H](C(=O)N(C)C)C3)[C@H](C)[C@H]12 [MEROPENEM],,,,,,,0.03,0.06,0.12,0.5
O=C(O)c1cn(C2CC2)c2cc(N3CCNCC3)c(F)cc2c1=O [CIPROFLOXACIN],,,,,,,0.125,8,> 32,> 32
CCN1CCN(C(=O)N[C@@H](C(=O)N[C@@H]2C(=O)N3[C@@H]2SC(C)(C)[C@@H]3C(=O)O)c2ccccc2)C(=O)C1=O [PIPERACILLIN],8,64,8,32,,,,,,
NCC[C@H](O)C(=O)N[C@@H]1C[C@H](N)[C@@H](O[C@H]2O[C@H](CN)[C@@H](O)[C@H](O)[C@H]2O)[C@H](O)[C@H]1O[C@H]1O[C@H](CO)[C@@H](O)[C@H](N)[C@H]1O [AMIKACIN],,,,,,,4,32,> 256,> 256
C[C@@H](O)[C@H]1C(=O)N2C(C(=O)O)=C(SCCNC=N)C[C@H]12 [IMIPENEM ANHYDROUS],,,,,,,0.25,0.5,0.5,2
C[C@@H](O)[C@H]1C(=O)N2C(C(=O)O)=C(S[C@@H]3CN[C@H](C(=O)Nc4cccc(C(=O)O)c4)C3)[C@H](C)[C@H]12 [ERTAPENEM],,,,,0.015,0.5,0.015,0.5,0.5,2
